Measured values from paper PMC5676521 (Chemical Science, 2017).

Target: PRMT7 (TbPRMT7) (Trypanosoma brucei, UniProt Q582G4)
Sequence (Q582G4 whole entry): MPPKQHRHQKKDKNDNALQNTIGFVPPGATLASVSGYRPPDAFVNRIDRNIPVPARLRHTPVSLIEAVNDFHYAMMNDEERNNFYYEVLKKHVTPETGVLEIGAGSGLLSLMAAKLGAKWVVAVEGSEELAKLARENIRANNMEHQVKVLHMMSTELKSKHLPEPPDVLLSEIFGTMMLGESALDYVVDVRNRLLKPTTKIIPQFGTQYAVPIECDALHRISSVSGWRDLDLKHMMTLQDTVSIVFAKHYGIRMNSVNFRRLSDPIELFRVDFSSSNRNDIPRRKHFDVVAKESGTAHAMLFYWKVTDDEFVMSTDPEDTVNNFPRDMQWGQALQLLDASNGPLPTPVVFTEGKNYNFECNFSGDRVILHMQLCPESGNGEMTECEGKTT

Compound `C[S+](CC[C@H](N)C(=O)O)C[C@H]1O[C@@H](n2nnc3c(N)ncnc32)[C@H](O)[C@@H]1O` (stereo partly shown) [8-aza-SAM] has a Km of 15.3 ± 0.7 µM.
